Data from ChEMBL document CHEMBL5055630, “Design, synthesis and biological evaluation of indole-based [1,2,4]triazolo[4,3-a] pyridine derivatives as novel microtubule polymerization inhibitors” (Eur J Med Chem, 2021).
Calls of active or inactive are those of the source. No cut-off for these calls is given here.

How the values were obtained:
HeLa [1] = experiment: Induction of cell cycle arrest in human HeLa cells assessed as accumulation of cells at G2/M phase at 50 nM incubated for 24 hrs by propidium iodide staining based flow cytometry analysis; type: functional
HeLa [2] = experiment: Induction of apoptosis in human HeLa cells assessed as necrotic cells at 50 nM incubated for 48 hrs by Annexin V and propidium iodide Staining based assay (reference value: 0.4%); type: functional
HeLa [3] = experiment: Induction of cell cycle arrest in human HeLa cells assessed as increase in cyclin B1 level at 10 to 1000 nM measured after 24 hrs by immunoblotting assay; type: functional, cell-based; conditions: dose 10-1000 nM
Tubulin beta = experiment: Inhibition of beta-tubulin polymerization in human HeLa cells assessed as inhibition of EBI-beta-tubulin adduct formation measured by Western blot-based EBI competition assay; type: cell-based
HeLa [4] = experiment: Induction of apoptosis in human HeLa cells assessed as viable cells at 50 nM incubated for 48 hrs by Annexin V and propidium iodide Staining based assay (reference value: 98.5 %); type: functional; conditions: read-out: Activity
HeLa [5] = experiment: Induction of cell cycle arrest in human HeLa cells assessed as accumulation of cells at G2/M phase at 5 nM incubated for 24 hrs by propidium iodide staining based flow cytometry analysis; type: functional
[6] = Metabolic stability in human liver microsomes assessed as parent compound remaining measured immediately after compound addition; type: ADME, Microsome; conditions: read-out: Stability
HeLa [7] = experiment: Induction of apoptosis in human HeLa cells assessed as increase in cleaved-PARP 1 protein expression after 24 hrs by Western blot analysis; type: functional, cell-based; conditions: dose 10-1000 nM
HeLa [8] = experiment: Induction of apoptosis in human HeLa cells assessed as late apoptotic cells at 25 nM incubated for 48 hrs by Annexin V and propidium iodide Staining based assay (reference value: 1 %); type: functional
HeLa [9] = experiment: Induction of apoptosis in human HeLa cells assessed as early apoptotic cells at 50 nM incubated for 48 hrs by Annexin V and propidium iodide Staining based assay (reference value: 0.2%); type: functional
Tubulin = experiment: Inhibition of tubulin polymerization (unknown origin) assessed as fluorescence intensity measured for 90 mins by DAPI based microplate reader; type: functional, Homo sapiens
HeLa [10] = experiment: Induction of apoptosis in human HeLa cells assessed as viable cells at 25 nM incubated for 48 hrs by Annexin V and propidium iodide Staining based assay (reference value: 98.5 %); type: functional; conditions: read-out: Activity
A549 = experiment: Antiproliferative activity against human A549 assessed as reduction in cell viability measured after 48 hrs by MTT assay; type: functional, cell-based; conditions: A549, 48 h
HeLa [11] = experiment: Induction of cell cycle arrest in human HeLa cells assessed as reduction in Cdc25c expression at 10 to 1000 nM measured after 24 hrs by immunoblotting assay; type: functional, cell-based; conditions: dose 10-1000 nM
HeLa [12] = experiment: Induction of apoptosis in human HeLa cells assessed as increase in cleaved caspase 3 protein expression after 24 hrs by Western blot analysis; type: functional, cell-based; conditions: dose 10-1000 nM
HeLa [13] = experiment: Induction of apoptosis in human HeLa cells assessed as reduction in Bcl-xl protein expression after 24 hrs by Western blot analysis; type: functional, cell-based; conditions: dose 10-1000 nM
HeLa [14] = experiment: Induction of apoptosis in human HeLa cells assessed as early apoptotic cells at 10 nM incubated for 48 hrs by Annexin V and propidium iodide Staining based assay (reference value: 0.2%); type: functional
MCF7 = experiment: Antiproliferative activity against human MCF7 assessed as reduction in cell viability measured after 48 hrs by MTT assay; type: functional, cell-based; conditions: MCF7, 48 h
Tubulin (Homo sapiens) = Tubulin (Homo sapiens) (UniProt P68371+Q9H4B7+P0DPH7+P68366+Q13509+Q71U36+P04350+Q3ZCM7+P07437+P68363+Q9BQE3+Q6PEY2+Q13885+Q9BVA1+Q9BUF5); experiment: Induction of microtubule disruption in human Hela cells assessed as fragmented and disassembled microtubule network in cytosol at 10 to 50 nM incubated for 24 hrs by AlexaFluor 488 dye/DAPI staining based immunofluorescence assay; type: cell-based; conditions: dose 10-50 nM
HeLa [15] = experiment: Induction of apoptosis in human HeLa cells assessed as necrotic cells at 25 nM incubated for 48 hrs by Annexin V and propidium iodide Staining based assay (reference value: 0.4%); type: functional
HeLa [16] = experiment: Induction of apoptosis in human HeLa cells assessed as late apoptotic cells at 50 nM incubated for 48 hrs by Annexin V and propidium iodide Staining based assay (reference value: 1 %); type: functional
HeLa [17] = experiment: Inhibition of cell migration in human HeLa cells at 5 nM incubated for 24 hrs by microscopy method relative to control; type: functional
HeLa [18] = experiment: Induction of apoptosis in human HeLa cells assessed as increase in bax protein expression after 24 hrs by Western blot analysis; type: functional, cell-based; conditions: dose 10-1000 nM
[19] = Metabolic stability in human liver microsomes assessed as half life; type: ADME, Microsome
HeLa [20] = experiment: Induction of apoptosis in human HeLa cells assessed as viable cells at 10 nM incubated for 48 hrs by Annexin V and propidium iodide Staining based assay (reference value: 98.5 %); type: functional; conditions: read-out: Activity
HeLa [21] = experiment: Induction of cell cycle arrest in human HeLa cells assessed as reduction in Cdc2 expression at 10 to 1000 nM measured after 24 hrs by immunoblotting assay; type: functional, cell-based; conditions: dose 10-1000 nM
HeLa [22] = experiment: Induction of apoptosis in human HeLa cells assessed as necrotic cells at 10 nM incubated for 48 hrs by Annexin V and propidium iodide Staining based assay (reference value: 0.4%); type: functional
HeLa [23] = experiment: Inhibition of cell migration in human HeLa cells at 25 nM incubated for 24 hrs by microscopy method relative to control; type: functional
HCT-116 = experiment: Antiproliferative activity against human HCT-116 assessed as reduction in cell viability measured after 48 hrs by MTT assay; type: functional, cell-based; conditions: HCT-116, 48 h
HeLa [24] = experiment: Induction of apoptosis in human HeLa cells assessed as reduction in Bcl-2 protein expression after 24 hrs by Western blot analysis; type: functional, cell-based; conditions: dose 10-1000 nM
HeLa [25] = experiment: Inhibition of cell migration in human HeLa cells at 10 nM incubated for 24 hrs by microscopy method relative to control; type: functional
HeLa [26] = experiment: Induction of apoptosis in human HeLa cells assessed as increase in bad protein expression after 24 hrs by Western blot analysis; type: functional, cell-based; conditions: dose 10-1000 nM
HeLa [27] = experiment: Induction of cell cycle arrest in human HeLa cells assessed as accumulation of cells at G2/M phase at 10 nM incubated for 24 hrs by propidium iodide staining based flow cytometry analysis; type: functional
HeLa [28] = experiment: Induction of apoptosis in human HeLa cells assessed as early apoptotic cells at 25 nM incubated for 48 hrs by Annexin V and propidium iodide Staining based assay (reference value: 0.2%); type: functional
[29] = Metabolic stability in human liver microsomes assessed as parent compound remaining after 15 mins; type: ADME, Microsome; conditions: read-out: Stability
[30] = Metabolic stability in human liver microsomes assessed as parent compound remaining after 60 mins; type: ADME, Microsome; conditions: read-out: Stability
[31] = Metabolic stability in human liver microsomes assessed as parent compound remaining after 90 mins; type: ADME, Microsome; conditions: read-out: Stability
[32] = Metabolic stability in human liver microsomes assessed as parent compound remaining after 30 mins; type: ADME, Microsome; conditions: read-out: Stability
HeLa [33] = experiment: Antiproliferative activity against human HeLa assessed as reduction in cell viability measured after 48 hrs by MTT assay; type: functional, cell-based
HeLa [34] = experiment: Induction of apoptosis in human HeLa cells assessed as late apoptotic cells at 10 nM incubated for 48 hrs by Annexin V and propidium iodide Staining based assay (reference value: 1 %); type: functional

- IC50 (Tubulin beta): Dose-dependent effect
- remaining at 0 min [6]: 100%
- IC50 (Tubulin): 1640 nM
- IC50 (A549): 69 nM
- IC50 (MCF7): 49 nM
- Activity (Tubulin (Homo sapiens)): Active
- half-life [19]: 51.7 min
- IC50 (HCT-116): 33 nM
- remaining at 0.25 h [29]: 75.9%
- remaining at 1 h [30]: 37.5%
- remaining at 1.5 h [31]: 30.1%
- remaining at 0.5 h [32]: 55.5%
- IC50 (HeLa [33]): 15 nM
SMILES: COc1cc(-c2nnc3c(OC)cc(-c4ccc5c(ccn5C)c4)cn23)cc(OC)c1OC
- Activity (HeLa [1]): 77%
- Activity (HeLa [2]): 2.6%
- Activity (HeLa [3]): Active
- viability at 0.05 µM (HeLa [4]): 4.2%
- Activity (HeLa [5]): 17.4%
- Activity (HeLa [7]): Dose-dependent effect
- Activity (HeLa [8]): 54%
- Activity (HeLa [9]): 27.6%
- viability at 0.025 µM (HeLa [10]): 31.2%
- Activity (HeLa [11]): Active
- Activity (HeLa [12]): Dose-dependent effect
- Activity (HeLa [13]): Dose-dependent effect
- Activity (HeLa [14]): 7.1%
- Activity (HeLa [15]): 3.6%
- Activity (HeLa [16]): 65.7%
- inhibition at 0.005 µM (HeLa [17]): 22.1%
- Activity (HeLa [18]): Dose-dependent effect
- viability at 0.01 µM (HeLa [20]): 41.8%
- Activity (HeLa [21]): Active
- Activity (HeLa [22]): 2.4%
- inhibition at 0.025 µM (HeLa [23]): 44.3%
- Activity (HeLa [24]): Dose-dependent effect
- inhibition at 0.01 µM (HeLa [25]): 32.2%
- Activity (HeLa [26]): Dose-dependent effect
- Activity (HeLa [27]): 37.7%
- Activity (HeLa [28]): 11.1%
- Activity (HeLa [34]): 48.8%
